# Results from PubChem BioAssay (NCI).
#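 Step 1: Grow cells in 96-well plates. Step 2: Expose to compound for 48 hours at 5 concentrations. Step 3: Interpolate endpoints linearly; if unreached, use highest concentration. At the GI50, growth is halved. TGI denotes the concentration required for complete inhibition of growth.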
# Tests used:
# Test in all cases: NCI anticancer screen, dose series, 48 h
# OVCAR-8 ovarian = system: OVCAR-8 ovarian
# SN12C renal = system: SN12C renal
# HOP-62 NSCLC = system: HOP-62 NSCLC
# DU-145 prostate = system: DU-145 prostate
# MDA-MB-231 breast = system: MDA-MB-231 breast
# HOP-92 NSCLC = system: HOP-92 NSCLC
# LOX IMVI melanoma = system: LOX IMVI melanoma
# K-562 leukemia = system: K-562 leukemia
# EKVX NSCLC = system: EKVX NSCLC
# HL-60(TB) leukemia = system: HL-60(TB) leukemia
# UO-31 renal = system: UO-31 renal
# HCT-15 colon = system: HCT-15 colon
# CCRF-CEM leukemia = system: CCRF-CEM leukemia
# RXF 393 renal = system: RXF 393 renal
# BT-549 breast = system: BT-549 breast
# M14 melanoma = system: M14 melanoma
# SK-MEL-2 melanoma = system: SK-MEL-2 melanoma
# UACC-62 melanoma = system: UACC-62 melanoma
# SR leukemia = system: SR leukemia
# RPMI-8226 leukemia = system: RPMI-8226 leukemia
# OVCAR-3 ovarian = system: OVCAR-3 ovarian
# COLO 205 colon = system: COLO 205 colon
# HT29 colon = system: HT29 colon
# MDA-MB-435 = system: MDA-MB-435
# NCI-H226 lung = system: NCI-H226 lung
# SF-295 CNS = system: SF-295 CNS
# SNB-75 CNS = system: SNB-75 CNS
# SK-MEL-28 melanoma = system: SK-MEL-28 melanoma
# SK-OV-3 ovarian = system: SK-OV-3 ovarian
# PC-3 prostate = system: PC-3 prostate
# A498 renal = system: A498 renal
# IGROV1 ovarian = system: IGROV1 ovarian
# MALME-3M melanoma = system: MALME-3M melanoma
# OVCAR-5 ovarian = system: OVCAR-5 ovarian
# SW-620 colon = system: SW-620 colon
# HCT-116 colon = system: HCT-116 colon
# ACHN renal = system: ACHN renal
# CAKI-1 renal = system: CAKI-1 renal
# SK-MEL-5 melanoma = system: SK-MEL-5 melanoma
# U251 CNS = system: U251 CNS
# NCI-H522 lung = system: NCI-H522 lung
# NCI-H23 lung = system: NCI-H23 lung
# 786-0 renal = system: 786-0 renal
# MCF7 breast = system: MCF7 breast
# SF-539 CNS = system: SF-539 CNS
# HS 578T breast = system: HS 578T breast
# TK-10 renal = system: TK-10 renal
# SNB-19 CNS = system: SNB-19 CNS
# MOLT-4 leukemia = system: MOLT-4 leukemia
# HCC-2998 colon = system: HCC-2998 colon
# UACC-257 melanoma = system: UACC-257 melanoma
# NCI-H460 lung = system: NCI-H460 lung
# OVCAR-4 ovarian = system: OVCAR-4 ovarian
# A549 NSCLC = system: A549 NSCLC
# NCI/ADR-RES ovarian = system: NCI/ADR-RES ovarian
# KM12 colon = system: KM12 colon
# T-47D breast = system: T-47D breast
# SF-268 CNS = system: SF-268 CNS
smiles,measurement,setting,value
N#Cc1c(-c2ccccc2)nc2c(c(-c3ccccc3)nn2-c2ccccc2)c1-c1ccc(O)cc1,GI50,OVCAR-8 ovarian,3.14 µM
same,TGI,OVCAR-8 ovarian,11.7 µM
same,GI50,SN12C renal,1.64 µM
same,TGI,SN12C renal,3.04 µM
same,GI50,HOP-62 NSCLC,2.12 µM
same,TGI,HOP-62 NSCLC,4.49 µM
same,GI50,DU-145 prostate,2.62 µM
same,TGI,DU-145 prostate,8.53 µM
same,GI50,MDA-MB-231 breast,1.7 µM
same,TGI,MDA-MB-231 breast,3.31 µM
same,GI50,HOP-92 NSCLC,2.06 µM
same,TGI,HOP-92 NSCLC,4.21 µM
same,GI50,LOX IMVI melanoma,1.68 µM
same,TGI,LOX IMVI melanoma,3.05 µM
same,GI50,K-562 leukemia,2.68 µM
same,TGI,K-562 leukemia,> 100 µM
same,GI50,EKVX NSCLC,1.92 µM
same,TGI,EKVX NSCLC,5.1 µM
same,GI50,HL-60(TB) leukemia,3.52 µM
same,TGI,HL-60(TB) leukemia,23.7 µM
same,GI50,UO-31 renal,2.02 µM
same,TGI,UO-31 renal,4.16 µM
same,GI50,HCT-15 colon,1.62 µM
same,TGI,HCT-15 colon,3.79 µM
same,GI50,CCRF-CEM leukemia,3.13 µM
same,TGI,CCRF-CEM leukemia,13.4 µM
same,GI50,RXF 393 renal,1.03 µM
same,TGI,RXF 393 renal,2.35 µM
same,GI50,BT-549 breast,2 µM
same,TGI,BT-549 breast,4.45 µM
same,GI50,M14 melanoma,2.27 µM
same,TGI,M14 melanoma,5.48 µM
same,GI50,SK-MEL-2 melanoma,2.39 µM
same,TGI,SK-MEL-2 melanoma,5.65 µM
same,GI50,UACC-62 melanoma,1.7 µM
same,TGI,UACC-62 melanoma,3.18 µM
same,GI50,SR leukemia,2.95 µM
same,TGI,SR leukemia,> 100 µM
same,GI50,RPMI-8226 leukemia,2.42 µM
same,TGI,RPMI-8226 leukemia,17.9 µM
same,GI50,OVCAR-3 ovarian,2 µM
same,TGI,OVCAR-3 ovarian,4.45 µM
same,GI50,COLO 205 colon,2.61 µM
same,TGI,COLO 205 colon,6.31 µM
same,GI50,HT29 colon,2.51 µM
same,TGI,HT29 colon,6.44 µM
same,GI50,MDA-MB-435,1.86 µM
same,TGI,MDA-MB-435,3.71 µM
same,GI50,NCI-H226 lung,1.97 µM
same,TGI,NCI-H226 lung,4.51 µM
same,GI50,SF-295 CNS,1.88 µM
same,TGI,SF-295 CNS,4.29 µM
same,GI50,SNB-75 CNS,2.03 µM
same,TGI,SNB-75 CNS,7.28 µM
same,GI50,SK-MEL-28 melanoma,1.58 µM
same,TGI,SK-MEL-28 melanoma,3.05 µM
same,GI50,SK-OV-3 ovarian,2.87 µM
same,TGI,SK-OV-3 ovarian,8.48 µM
same,GI50,PC-3 prostate,1.82 µM
same,TGI,PC-3 prostate,3.78 µM
same,GI50,A498 renal,1.66 µM
same,TGI,A498 renal,3.07 µM
same,GI50,IGROV1 ovarian,1.8 µM
same,TGI,IGROV1 ovarian,3.62 µM
same,GI50,MALME-3M melanoma,1.62 µM
same,TGI,MALME-3M melanoma,3.83 µM
same,GI50,OVCAR-5 ovarian,1.75 µM
same,TGI,OVCAR-5 ovarian,3.41 µM
same,GI50,SW-620 colon,1.86 µM
same,TGI,SW-620 colon,3.53 µM
same,GI50,HCT-116 colon,2.63 µM
same,TGI,HCT-116 colon,7.32 µM
same,GI50,ACHN renal,2.24 µM
same,TGI,ACHN renal,5.89 µM
same,GI50,CAKI-1 renal,2.48 µM
same,TGI,CAKI-1 renal,6.7 µM
same,GI50,SK-MEL-5 melanoma,1.76 µM
same,TGI,SK-MEL-5 melanoma,3.19 µM
same,GI50,U251 CNS,1.63 µM
same,TGI,U251 CNS,3.97 µM
same,GI50,NCI-H522 lung,2.32 µM
same,TGI,NCI-H522 lung,6.03 µM
same,GI50,NCI-H23 lung,1.78 µM
same,TGI,NCI-H23 lung,3.84 µM
same,GI50,786-0 renal,2.16 µM
same,TGI,786-0 renal,5.35 µM
same,GI50,MCF7 breast,1.86 µM
same,TGI,MCF7 breast,4.76 µM
same,GI50,SF-539 CNS,1.25 µM
same,TGI,SF-539 CNS,2.76 µM
same,GI50,HS 578T breast,1.41 µM
same,TGI,HS 578T breast,4.46 µM
same,GI50,TK-10 renal,2.89 µM
same,TGI,TK-10 renal,8.19 µM
same,GI50,SNB-19 CNS,1.9 µM
same,TGI,SNB-19 CNS,3.8 µM
same,GI50,MOLT-4 leukemia,2.48 µM
same,TGI,MOLT-4 leukemia,7.86 µM
same,GI50,HCC-2998 colon,1.84 µM
same,TGI,HCC-2998 colon,3.47 µM
same,GI50,UACC-257 melanoma,3.13 µM
same,TGI,UACC-257 melanoma,12.1 µM
same,GI50,NCI-H460 lung,1.73 µM
same,TGI,NCI-H460 lung,3.26 µM
same,GI50,OVCAR-4 ovarian,1.95 µM
same,TGI,OVCAR-4 ovarian,4.66 µM
same,GI50,A549 NSCLC,2.57 µM
same,TGI,A549 NSCLC,6.87 µM
same,GI50,NCI/ADR-RES ovarian,2.27 µM
same,TGI,NCI/ADR-RES ovarian,5.62 µM
same,GI50,KM12 colon,2.02 µM
same,TGI,KM12 colon,4.76 µM
same,GI50,T-47D breast,3.05 µM
same,TGI,T-47D breast,23.8 µM
same,GI50,SF-268 CNS,2.83 µM
same,TGI,SF-268 CNS,9.14 µM
